Assay results taken from ChEMBL document CHEMBL6134815, “Research progress of LpxC inhibitor on Gram-negative bacteria” (Eur J Med Chem, 2025).
Converted amounts (≈) assume the structure as drawn. Each block holds one compound with its values, some of them ahead of it.

Experiments:
Salmonella typhimurium = experiment: Antimicrobial activity against Salmonella enterica subsp. enterica serovar Typhimurium ATCC 14028 assessed as inhibition of bacterial growth measured for 24 hrs by standard broth microdilution method; format: functional
Escherichia coli [1] = experiment: Antibacterial activity against Escherichia coli ATCC 25922 incubated for 24 hrs by CLSI based micro-dilution method; format: functional
Pseudomonas aeruginosa [2] = experiment: Antibacterial activity against Pseudomonas aeruginosa ATCC 27853 assessed as reduction in bacterial growth incubated for 18 hrs by broth micro-dilution method; format: functional
[3] = target: T1, UDP-3-O-acyl-N-acetylglucosamine deacetylase (Escherichia coli K-12, UniProt P0A725); experiment: Inhibition of Escherichia coli LpxC
T1 sequence (P0A725 whole entry): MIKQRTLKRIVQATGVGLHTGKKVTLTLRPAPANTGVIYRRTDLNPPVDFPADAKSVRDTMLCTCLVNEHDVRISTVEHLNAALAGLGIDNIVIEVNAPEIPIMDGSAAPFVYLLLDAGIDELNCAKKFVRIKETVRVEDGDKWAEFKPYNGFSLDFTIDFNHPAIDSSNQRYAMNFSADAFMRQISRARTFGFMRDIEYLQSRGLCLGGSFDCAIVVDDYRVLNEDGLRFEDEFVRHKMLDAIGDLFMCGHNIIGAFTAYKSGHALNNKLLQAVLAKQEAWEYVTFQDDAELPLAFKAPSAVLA

Serratia marcescens = experiment: Antibacterial activity against Serratia marcescens assessed as inhibition of bacterial growth by Muller-Hinton broth based serial dilution method; format: functional
Morganella morganii = experiment: Antimicrobial activity against Morganella morganii ATCC 25830 assessed as inhibition of microbial growth incubated for 18 hrs by micro-broth dilution method; format: functional
Haemophilus influenzae = experiment: Antibacterial activity against Haemophilus influenzae ATCC 49247 assessed as inhibition of microbial growth incubated for 18 hrs by micro-broth dilution method; format: functional
[4] = target: T1, UDP-3-O-acyl-N-acetylglucosamine deacetylase; experiment: Binding affinity to Escherichia coli LpxC assessed as inhibition constant
Escherichia coli [5] = experiment: Antibacterial activity against Escherichia coli ATCC 25922 assessed as reduction in bacterial growth incubated for 18 hrs by broth micro-dilution method; format: functional
Escherichia coli [6] = experiment: Antibacterial activity against Escherichia coli ATCC 25922 assessed as reduction in bacterial growth by CLSI protocol based Mueller Hinton broth assay; format: functional
Pseudomonas aeruginosa [7] = experiment: Antibacterial activity against Pseudomonas aeruginosa ATCC 27853 assessed as reduction in bacterial growth by CLSI protocol based Mueller Hinton broth assay; format: functional
Klebsiella pneumoniae [8] = experiment: Antibacterial activity against Klebsiella pneumoniae A651 assessed as reduction in bacterial growth by CLSI protocol based Mueller Hinton broth assay; format: functional
Escherichia coli [9] = experiment: Antibacterial activity against Escherichia coli CMCC 44568 assessed as reduction in bacterial growth incubated for 22 hrs byMueller-Hinton Broth assay; format: functional
Pseudomonas aeruginosa [10] = experiment: Antibacterial activity against Pseudomonas aeruginosa CMCC 10104 assessed as reduction in bacterial growth incubated for 22 hrs byMueller-Hinton Broth assay; format: functional
[11] = Inhibition of Aquifex aeolicus LpxC
Pseudomonas aeruginosa [12] = experiment: Antibacterial activity against Pseudomonas aeruginosa PAO1 assessed as reduction in bacterial growth incubated for 24 hrs By CLSI based micro-dilution method; format: functional
Escherichia coli [13] = experiment: Antibacterial activity against Escherichia coli ATCC 25922; format: functional
Klebsiella pneumoniae [14] = experiment: Antibacterial activity against Klebsiella pneumoniae ATCC 700603; format: functional
Pseudomonas aeruginosa [15] = experiment: Antibacterial activity against Pseudomonas aeruginosa PAO1; format: functional
[16] = target: T2, UDP-3-O-acyl-N-acetylglucosamine deacetylase (Pseudomonas aeruginosa (strain ATCC 15692 / PAO1 / 1C / PRS 101 / LMG12228), UniProt P47205); experiment: Binding affinity to Pseudomonas aeruginosa LpxC assessed as inhibition constant
T2 sequence (P47205 whole entry): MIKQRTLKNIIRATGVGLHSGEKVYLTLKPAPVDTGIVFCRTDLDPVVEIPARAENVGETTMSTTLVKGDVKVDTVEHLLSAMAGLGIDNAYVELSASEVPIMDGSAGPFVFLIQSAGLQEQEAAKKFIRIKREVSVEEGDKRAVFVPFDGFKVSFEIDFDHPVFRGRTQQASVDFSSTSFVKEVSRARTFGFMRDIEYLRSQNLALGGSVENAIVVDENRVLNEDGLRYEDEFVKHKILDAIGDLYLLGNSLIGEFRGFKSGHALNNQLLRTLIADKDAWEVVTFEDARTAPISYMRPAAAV

Escherichia coli [17] = experiment: Antimicrobial activity against Escherichia coli ATCC 25922 assessed as reduction in bacterial growth incubated for 18 hrs by micro-dilution method; format: functional
Klebsiella pneumoniae [18] = experiment: Antibacterial activity against Klebsiella pneumoniae ATCC 700603 assessed as inhibition of bacterial growth incubated for 18 hrs by broth micro-dilution method; format: functional
[19] = Toxicity in CD-1 mouse assessed as effective dose; settings: in vivo
[20] = target: T2, UDP-3-O-acyl-N-acetylglucosamine deacetylase; experiment: Inhibition of Pseudomonas aeruginosa LpxC
Escherichia coli [21] = experiment: Anti-microbial activity against Escherichia coli ATCC 25922 assessed as reduction in bacterial growth incubated for 24 hrs By CLSI based micro-dilution method; format: functional
Escherichia coli [22] = experiment: Antibacterial activity against Escherichia coli assessed as bacterial growth inhibition; format: functional
Pseudomonas aeruginosa [23] = experiment: Antibacterial activity against Pseudomonas aeruginosa assessed as bacterial growth inhibition; format: functional
Klebsiella pneumoniae [24] = experiment: Antibacterial activity against Klebsiella pneumoniae ATCC 43816 assessed as reduction in microbial growth incubated for 16 to 18 hrs by CLSI protocol based Muller Hinton broth assay; format: functional; settings: time 16-18 hrs
Pseudomonas aeruginosa [25] = experiment: Antibacterial activity against Pseudomonas aeruginosa assessed as reduction in bacterial growth; format: functional
Escherichia coli [26] = experiment: Antibacterial activity against Escherichia coli ATCC 25922 assessed as reduction in bacterial growth; format: functional
Yersinia enterocolitica = experiment: Antibacterial activity against Yersinia enterocolitica assessed as inhibition of bacterial growth incubated for 16 to 20 hrs by CLSI protocol based Muller Hinton broth assay; format: functional; settings: time 16-20 hrs
Pseudomonas aeruginosa [27] = experiment: Antibacterial activity against Pseudomonas aeruginosa ATCC 27853 assessed as reduction in bacterial growth by CLSI protocol based Muller Hinton broth assay; format: functional

- MIC (Salmonella typhimurium): 0.024 µg/mL (≈ 0.0662 µM)
- MIC (Escherichia coli [1]): 0.05 µg/mL (≈ 0.138 µM)
- MIC (Pseudomonas aeruginosa [2]): 0.74 µg/mL (≈ 2.04 µM)
SMILES: C[C@@H](O)[C@H](NC(=O)c1ccc(C#CC#Cc2ccccc2)cc1)C(=O)NO

- IC50 [3]: 160 nM
- MIC (Serratia marcescens): 1 µg/mL (≈ 2.38 µM)
- MIC (Morganella morganii): 1 µg/mL
- MIC (Haemophilus influenzae): 1 µg/mL
SMILES: O=C(NO)[C@@H](Cc1ccc2ccccc2c1)NS(=O)(=O)c1ccc2ccccc2c1

- Ki [4]: 4400 nM
SMILES: O=C(NO)[C@H]1O[C@@H](c2ccc(C#CC#Cc3ccccc3)cc2)[C@@H](O)[C@H]1O

- MIC (Escherichia coli [5]): 1 µg/mL (≈ 3.59 µM)
SMILES: CCCc1cc(C2=NC(C(=O)NO)CO2)ccc1OC (stereo not drawn)

- MIC (Escherichia coli [6]): 0.031 µg/mL (≈ 0.0638 µM)
- MIC (Pseudomonas aeruginosa [7]): 0.5 µg/mL (≈ 1.03 µM)
- MIC (Klebsiella pneumoniae [8]): 0.125 µg/mL (≈ 0.257 µM)
SMILES: C[C@@](CCN1Cc2cc(C#Cc3ccc([C@H]4C[C@@H]4CO)cc3)cn2C1=O)(C(=O)NO)S(C)(=O)=O

- MIC (Escherichia coli [9]): 8 µg/mL (≈ 24.9 µM)
- MIC (Pseudomonas aeruginosa [10]): 4 µg/mL (≈ 12.5 µM)
SMILES: N=C(N)N/N=C/c1ccc(C#CC#Cc2ccccc2Cl)cc1

- IC50 [3]: 115000 nM
- IC50 [11]: 192000 nM
SMILES: CCCCCC(=O)O[C@@H]1[C@@H](CP(C)(=O)O)CO[C@H](CO)[C@H]1O

- MIC (Pseudomonas aeruginosa [12]): 0.06 µg/mL (≈ 0.143 µM)
SMILES: CC(O)C#CC#Cc1ccc(C2=NO[C@@H](C[C@](C)(C(=O)NO)S(C)(=O)=O)C2)cc1 (stereo partly drawn)

- IC50 [3]: 100 nM
SMILES: CNC(=O)c1ccc(-c2ccc(NCc3oc(S(C)(=O)=O)cc(=O)c3O)cc2)cc1

- MIC (Escherichia coli [13]): 0.12 µg/mL (≈ 0.313 µM)
- MIC (Klebsiella pneumoniae [14]): 0.5 µg/mL (≈ 1.3 µM)
- MIC (Pseudomonas aeruginosa [15]): 0.5 µg/mL (≈ 1.3 µM)
SMILES: COC[C@@H]1C[C@H]1C#CC#Cc1ccc(C(=O)N[C@H](C(=O)NO)C(C)(C)N)cc1

- Ki [16]: 0.0089 nM
- MIC90 (Escherichia coli [17]): 0.5 µg/mL (≈ 1.33 µM)
- MIC90 (Klebsiella pneumoniae [18]): 0.125 µg/mL (≈ 0.332 µM)
SMILES: C[C@@](O)(C(F)F)[C@H](NC(=O)c1ccc(C#CC#CC2CC2)cc1)C(=O)NO
- ED50 [19]: 7.2 mg/kg/day

- IC50 [3]: 27000 nM
SMILES: O=C(CO/N=C/c1ccc(O)c(O)c1O)NC[C@H]1O[C@@H](n2ccc(=O)[nH]c2=O)[C@@H](O)[C@H]1O

- IC50 [20]: 0.2 nM
- MIC (Pseudomonas aeruginosa [12]): 0.25 µg/mL (≈ 0.562 µM)
SMILES: O=C(NO)C1(NCc2ccc(-c3ccc(Cl)cc3F)c(F)c2)CCS(=O)(=O)CC1

- IC50 [3]: 400 nM
- MIC (Serratia marcescens): 1 µg/mL (≈ 2 µM)
- MIC (Morganella morganii): 1 µg/mL
- MIC (Haemophilus influenzae): 1 µg/mL
SMILES: O=C(NO)[C@@H](Cc1ccc2ccccc2c1)NS(=O)(=O)c1ccc2cc(Br)ccc2c1

- Ki [4]: 3500 nM
- MIC (Escherichia coli [21]): 2 µg/mL (≈ 4.73 µM)
SMILES: O=C(NO)[C@H]1O[C@@H](c2ccc(C#Cc3ccc(CN4CCOCC4)cc3)cc2)C[C@H]1O

SMILES: CC(O)C(CP(=O)(O)O)NC(=O)c1ccc(C#Cc2ccc(CN3CCOCC3)cc2)cc1 (stereo not drawn)
- MIC (Escherichia coli [22]): 0.28 µg/mL (≈ 0.593 µM)
- MIC (Pseudomonas aeruginosa [23]): 2.06 µg/mL (≈ 4.36 µM)

- MIC (Escherichia coli [21]): 0.125 µg/mL (≈ 0.236 µM)
SMILES: O=C(NO)[C@@H](OCc1ccc(C#Cc2ccc(CN3CCOCC3)cc2)cc1)[C@@H](O)COCc1ccccc1

- MIC (Escherichia coli [9]): 2 µg/mL (≈ 6.23 µM)
- MIC (Pseudomonas aeruginosa [10]): 1 µg/mL (≈ 3.12 µM)
SMILES: N=C(N)N/N=C/c1ccc(C#CC#Cc2ccc(Cl)cc2)cc1

- MIC (Escherichia coli [6]): 0.063 µg/mL (≈ 0.134 µM)
- MIC (Pseudomonas aeruginosa [7]): 1 µg/mL (≈ 2.12 µM)
- MIC (Klebsiella pneumoniae [8]): 0.25 µg/mL (≈ 0.53 µM)
SMILES: C[C@]1(CO)C[C@@H]1C#CC#Cc1ccc2c(=O)n(CC[C@](C)(C(=O)NO)S(C)(=O)=O)cnc2c1

- IC50 [3]: 100 nM
SMILES: CS(=O)(=O)c1cc(=O)c(O)c(CNc2ccc(-c3ccc(N4CCOCC4)cc3)cc2)o1

- MIC (Klebsiella pneumoniae [24]): 0.5 µg/mL
- MIC (Pseudomonas aeruginosa [25]): ≤ 1 µg/mL
- MIC (Escherichia coli [26]): 0.125 µg/mL (≈ 0.338 µM)
- MIC (Yersinia enterocolitica): 2 µg/mL (≈ 5.41 µM)
- MIC (Pseudomonas aeruginosa [27]): 0.25 µg/mL (≈ 0.677 µM)
SMILES: CC(C)(N)[C@H](NC(=O)c1ccc(C#CC#C[C@@H]2C[C@H]2CO)cc1)C(=O)NO [ACHN-975]
